Consider 9 compounds from patent publication US5922677A, “Therapeutic method and compounds of use therein” (Auckland UniServices Limited, priority 1994, dated 1999).

Assay [1] relates to osteoblast-like cells from fetal rat calvariae. Description: Numbers of osteoblast-like cells in culture. The assay is classed as cell-based. As to conditions: for effect on cell number (osteoblast proliferation): growth-arrested cultures, 24 hours. The source says: Cells were either (a) growth-arrested as a result of being cultured in the presence of 0.1% bovine serum albumin or (b) were actively growing in culture medium containing 2% fetal calf serum. n=6 in each group. Data are mean ± sem. Statistical significance (by Student's test) of differences from control: *p≤0.05; **p<0.005; ***p<0.001.

The test system is the same in assay [2]. Put plainly: Numbers of osteoblast-like cells in culture. The assay is classed as cell-based. To be noted: for Osteoblast Numbers after 24 h culture: mean ± SD.
The next assay relates to calvariae of adult mice. Put plainly: In vivo calvarial study, local injection over hemicalvaria, histomorphometry. As to conditions: 4.1×10^-9 mol daily for 5 days over right hemicalvaria. The source says:
FIG. 4 Comparison of the in vivo effects of rat amylin, rat calcitonin (CT) and rat CGRP in adult mice. The daily dose of each peptide was 4.1×10^-9 mol. Data are expressed as the ratio of each index measured in the injected hemicalvaria to that measured in the contralateral, uninjected hemicalvaria. n=5 in each group. Data are mean ± sem. Significant differences (p<0.05) between the injected and uninjected hemicalvariae are indicated by asterisks.
The effects of the peptides on bone histology in vivo were assessed by subcutaneously injecting the peptide daily for 5 days over the periosteum of the right hemicalvaria of adult, male Swiss-Webster mice. The animals were sacrificed 1 week following the last injection. Non-decalcified sections of the calvariae were prepared as described previously, Cornish, J., Callon, K., King, A., Edgar, S., and Reid, I. R. (1993) Endocrinology 132, 1359-1366. Quantitative histomorphometry was performed by an operator blinded to the treatment each animal had received. Data are expressed as the ratio of each index measured in the injected hemicalvaria to that measured in the contralateral, uninjected hemicalvaria of the same animal and have been evaluated by paired t tests.

The subject of a further assay is mouse calvaria. Description: Systemic in vivo experiment, calvarial histomorphometry. Also noted: species or system mice. The procedure: We have also conducted the following systemic in vivo experiment where amylin at a concentration of 10^-8 M is injected subcutaneously.
Calvarial Histomorphometry
11 mice in each treatment group.
Differences between control and amylin groups were statistically tested using an unpaired Student t test.
Measurements are recorded per mm calvarial length.

Assay [3] concerns osteoblast-like cells from fetal rat calvariae. Description: Thymidine incorporation into osteoblast-like cells. In kind it is cell-based. To be noted: time-course (FIG. 3), medium with 0.1% bovine serum albumin. The protocol: FIG. 3 The effect of rat amylin on thymidine incorporation into osteoblast-like cells from fetal rat calvariae. Statistical significance of differences from control at each time-point: *p=0.002; **p<0.001. In both experiments the culture medium contained 0.1% bovine serum albumin. n=6 in each group. Data are mean ± sem.
Osteoblast-like cells were prepared by sequential collagenase digestion of calvariae from 20 day fetal rats, as described previously, Lowe, C., Cornish, J., Callon, K, Martin, T. J., and Reid, I. R. (1991) J. Bone Miner. Res. 6, 1277-1283.
Background: Uptake of a labelled nucleoside into DNA is a usual measure of proliferation.

Setting [4] is: systemic test, summary in words.
Setting [5] is: injected vs uninjected hemicalvaria.

Counter-ions that a name gives are not always drawn. No end group written: not given here.

In the case of `O=C(O)C(F)(F)F` [TFA, trifluoroacetic acid], the cell numbers in assay [1] (4×10^-8 M, exposed for 24 hrs, control 5.6±0.3×10^4) is 4.2±0.3×10^4.

As for “Amylin, TFA Salt: amylin as trifluoroacetic acid salt, generally the tetra-TFA salt, as isolated by HPLC (KCNTATCATQRLANFLVHSSNNFGAILSSTNVGSNTY; not fully specified (C-terminus, bridges); cysteine pairing not given here; also: trifluoroacetate salt; UniProt P10997 34-70, looked up)”, the “Osteoblast Numbers after 24 h culture” value in assay [2] (10^-8 M, control 4.6 ± 0.64) is 5.6 ± 0.96 10^4 cells/well.

Take “Amylin, chloride salt: amylin salt prepared by dissolving peptide in 3 mM hydrochloric acid and freeze-drying (KCNTATCATQRLANFLVHSSNNFGAILSSTNVGSNTY; not fully specified (C-terminus, bridges); cysteine pairing not given here; also: chloride salt; UniProt P10997 34-70, looked up)”: in assay [2] (10^-8 M, control 4.6 ± 0.64), the “Osteoblast Numbers after 24 h culture” value is reported as 7.9 ± 1.00 10^4 cells/well.

With “CGRP: rat calcitonin gene-related peptide-1, a peptide related to amylin (SCNTATCVTHRLAGLLSRSGGVVKDNFVPTNVGSEAF; not fully specified (C-terminus, bridges); cysteine pairing not given here; UniProt P01256 83-119, looked up)”, the “effect on cell number (osteoblast proliferation)” value (shortened to “effect on cell number”) in assay [1] (dose-response (FIG. 1a)) was “increased osteoblast proliferation, but the effect was smaller and only significant at 10^-8 M”.

Regarding “Rat calcitonin: rat calcitonin peptide, comparator (CGNLSTCMLGTYTQDLNKFHTFPQTSIGVGAP; ends and bridges not checked; cysteine pairing not given here; UniProt P01257 85-116, looked up) [reference compound]”, the eroded surface result in the assay with calvariae of adult mice is given as “reduced eroded surface to a similar extent to amylin”. Also, the “mineralized bone area increase” value in the assay with calvariae of adult mice (non-significant) came out at 4%. Also, in assay [1] (10^-9 -10^-7 M), the “effect on cell number” value was “without effect”.

Regarding “amylin: 37-amino acid peptide cosecreted with insulin from pancreatic beta cells; species not printed at place (rat amylin per FIG. 1-4 legends)”, in the assay with mouse calvaria (setting [4]), the “indices of bone formation compared to control” value is “significant increases in all indices of bone formation” and the “indices of bone resorption compared to control” value is on record as “significant decreases in indices of bone resorption”. The same compound yielded an osteoid area with mouse calvaria (systemic, subcutaneous, 10^-8 M, mean, per mm calvarial length, control 0.0005) of 0.0018 mm^2. Besides, the osteoclast surface in the assay with mouse calvaria (systemic, subcutaneous, 10^-8 M, mean, per mm calvarial length, control 0.094) was 0.019 mm. Further, the eroded surface with mouse calvaria (systemic, subcutaneous, 10^-8 M, mean, per mm calvarial length, control 0.294) is 0.081 mm. Further, the osteoblast surface with mouse calvaria (systemic, subcutaneous, 10^-8 M, mean, per mm calvarial length, control 0.85) amounted to 1.76 mm. Further, the osteoclast number in the assay with mouse calvaria (systemic, subcutaneous, 10^-8 M, mean, per mm calvarial length, control 3.6) stood at 1.2. For the same compound, the osteoblast number in the assay with mouse calvaria (systemic, subcutaneous, 10^-8 M, mean, per mm calvarial length, control 73.6) turned out to be 147.5. In the assay on calvariae of adult mice (setting [5]), the bone resorption entry is “decreases in bone resorption of comparable magnitude” and the “indices of bone formation” value is “two- to three-fold increases”. Moreover, the “cell number over time” value in assay [2] (time-course 6 to 48 hours (FIG. 2)) is “increased in amylin-treated cells from 6 to 48 hours”. Moreover, the “DNA synthesis assessed by thymidine incorporation” value in assay [3] is given as “sustained increase in DNA synthesis”. In addition, the “stimulation of osteoblast proliferation” value in assay [1] (actively growing cells (2% fetal calf serum, FIG. 1b)) is listed as “also observed in actively growing cells”. In addition, in assay [1] (dose-response (FIG. 1a)), the “effect on cell number” value was “substantial, dose-related increase in cell number”.

Turning to parathyroid hormone, the reduced cell numbers in assay [1] (10^-8 M, at 24 hours) came out at 18%.

For the compound “rat amylin: rat form of the 37-amino acid peptide amylin (KCNTATCATQRLANFLVRSSNNLGPVLPPTNVGSNTY; not fully specified (C-terminus, bridges); cysteine pairing not given here; UniProt P12969 38-74, looked up)”, the “Osteoblast Numbers after 24 h culture” value in assay [2] (10^-9 M, control 4.2 ± 0.6) is reported as 5.9 ± 0.8 x10^4 cells/well.

Consider salmon calcitonin, for which the “effect on cell number” value in assay [1] (10^-7 M) is “without effect”.
